{"source": "paper PMC10043345", "about": "“Discovery of BAR502, as potent steroidal antagonist of leukemia inhibitory factor receptor for the treatment of pancreatic adenocarcinoma” (Frontiers in Oncology, 2023)", "type_in_all_cases": "cell-based, human", "key": {"MIA PaCa-2 cells [1]": {"tested_on": "MIA PaCa-2 cells", "assay": "Real-time PCR and Western blot of EMT markers, CXCR4 and STAT3 phosphorylation", "protocol": "The RNA was extracted from cell lines using and Direct-zol™ RNA MiniPrep w/Zymo-Spin™ IIC Columns (Zymo Research, Irvine, CA, USA)., according to the manufacturer’s protocol as described previously ([20]). After purification from genomic DNA by DNase-I treatment (ThermoFisher Scientific, Waltham, MA USA), 2 µg of RNA from each sample was reverse-transcribed using Kit FastGene Scriptase Basic (Nippon Genetics, Mariaweilerstraße, Düren, Germania) in a 20 μL reaction volume. Finally, 50 ng cDNA were amp LIFied in a 20 μL solution containing 200 nM of each primer and 10 μL of SYBR Select Master Mix (ThermoFisher Scientific). All reactions were performed in triplicate, and the thermal cycling conditions were as follows: 3 min at 95°C, followed by 40 cycles of 95°C for 15 s, 56°C for 20 s and 72°C for 30 s, using a Step One Plus machine (Applied Biosystem). The relative mRNA expression was calculated accordingly to the 2^-ΔCt method. Primers used in this study were designed using the PRIMER3 (http://frodo.wi.mit.edu/primer3/) software using the NCBI […]. RT-PCR primers used in this study for human sample and human cell lines were as follow [forward (for) and reverse (rev)]:\nMIA-PaCa 2 cells were seeded in 6-well tissue culture plate (cell density 1.5 * 10^6/well) in DMEM complete medium. After serum starving, cells were incubated with LIF (10 ng/mL) alone or plus BAR502 (10 µM) for 10 min. Total lysates were prepared by homogenization of MIA-PaCa2 cells in RIPA buffer containing phosphatase and protease inhibitors. […] Primary Abs were detected with the HRP-labeled secondary Abs. […] Quantitative densitometry analysis was performed using ImageJ software. The degree of STAT3 phosphorylation was calculated as the ratio between the densitometry readings of […] p-STAT3/STAT3."}, "MIA PaCa-2 cells [2]": {"tested_on": "MIA PaCa-2 cells", "assay": "AmpliSeq transcriptome (RNAseq) analysis", "settings": "LIF 10 ng/mL + BAR502 10 µM versus LIF, 24 h", "protocol": "MIA PaCa-2 cells were cultured in 6-well tissue culture plate (cell density 1.5 * 10^6/well) in DMEM complete medium. After serum starving, cells were exposed with LIF (10 ng/mL) alone or plus BAR502 (10 µM) or left untreated for 24h. High-quality RNA was extracted from MIA PaCa-2 cells using the PureLink™ RNA Mini Kit (Thermo Fisher Scientific), according to the manufacturer’s instructions. RNA quality and quantity were assessed with the Qubit® RNA HS Assay Kit and a Qubit 3.0 fluorometer followed by agarose gel electrophoresis. Libraries were generated using the Ion AmpliSeq™ Transcriptome Human Gene Expression Core Panel and Chef-Ready Kit (Thermo Fisher Scientific), according to the manufacturer’s instructions. Briefly, 10 ng of RNA was reverse transcribed with SuperScript™ Vilo™ cDNA Synthesis Kit (Thermo Fisher Scientific, Waltham, MA) before library preparation on the Ion Chef™ instrument (Thermo Fisher Scientific, Waltham, MA). The resulting cDNA was amplified to prepare barcoded libraries using the Ion Code™ PCR Plate, and the Ion AmpliSeq™ Transcriptome Human Gene Expression Core Panel (Thermo Fisher Scientific, Waltham, MA), Chef-Ready Kit, according to the manufacturer’s instructions. Barcoded libraries were combined to a final concentration of 100 pM, and used to prepare Template-Positive Ion Sphere™ (Thermo Fisher Scientific, Waltham, MA) Particles to load on Ion 540™ Chips, using the Ion 540™ Kit-Chef (Thermo Fisher Scientific, Waltham, MA). Sequencing was performed on an Ion S5™ Sequencer with Torrent Suite™ Software v6 (Thermo Fisher Scientific). The analyses were performed with a range of fold <−2 and >+2 and a p value < 0.05, using Transcriptome Analysis Console Software (version 4.0.2), certified for AmpliSeq analysis (Thermo-Fisher). The transcriptomic data have been deposited as dataset on Mendeley data repository […]."}, "MIA PaCa-2 cells [3]": {"tested_on": "MIA PaCa-2 cells", "assay": "Scratch wound healing assay", "settings": "BAR502 10 µM + LIF 10 ng/mL; 0, 24, 48 h", "protocol": "MIA PaCa-2 cells were seeded in DMEM complete medium at […] cells/well into 24-well plate and used at 70-80% confluence rate. The assay was performed as previously described ([20]), particularly on the day 1, the cell monolayers were gently scraped vertically with a new 0.2 mL pipette tip across the centre of the well. After scratching, the well was gently washed twice with PBS (Euroclone, Milan, Italy) to remove the detached cells and cell debris and finally fresh medium containing LIF (10 ng/mL) alone or in combination with BAR502 (10 µM) or EC359 (25 nM) was added into each well. Immediately after scratch creation, the 24-plate was placed under a phase-contrast microscope and the first image of the scratch acquired (T0) with using a OPTIKAM Pro Cool 5 – 4083.CL5 camera. Cells were grown for additional 48 h and images taken at 24h (T1) and 48 h (T2). The gap distance between scarps borders was quantified by assessing that area between the two margins of the scratches. All experiments were performed in triplicate."}}, "data": [{"smiles": "CC[C@H]1[C@@H](O)C2C3CC[C@H]([C@H](C)CCO)[C@@]3(C)CCC2[C@@]2(C)CC[C@@H](O)C[C@@H]12", "note": "(some centres unmarked) [BAR502]", "values": [{"measurement": "effect on STAT3 phosphorylation caused by LIF", "setting": "MIA PaCa-2 cells [1]; BAR502 10 µM + LIF 10 ng/mL, Western blot", "value": "significantly attenuated STAT3 phosphorylation"}, {"measurement": "effect on vimentin expression (RNA and protein) induced by LIF", "setting": "MIA PaCa-2 cells [1]; BAR502 10-20 μM + LIF 10 ng/mL", "value": "reversed the induction of vimentin expression"}, {"measurement": "effect on CXCR4 mRNA expression increased by LIF", "setting": "MIA PaCa-2 cells [1]; BAR502 + LIF 10 ng/mL, 24 h", "value": "reversed the mRNA expression"}, {"measurement": "CCND2 expression Fold Change (FC)", "setting": "MIA PaCa-2 cells [2]", "value": "16,13"}, {"measurement": "KIF20A expression Fold Change (FC)", "setting": "MIA PaCa-2 cells [2]", "value": "-17,49"}, {"measurement": "RRM2 expression Fold Change (FC)", "setting": "MIA PaCa-2 cells [2]", "value": "-14,34"}, {"measurement": "SESN2 expression Fold Change (FC)", "setting": "MIA PaCa-2 cells [2]", "value": "15,84"}, {"measurement": "SLC7A11 expression Fold Change (FC)", "setting": "MIA PaCa-2 cells [2]", "value": "35,54"}, {"measurement": "TNFRSF1B (TNFR2) expression Fold Change (FC)", "setting": "MIA PaCa-2 cells [2]", "value": "-11,72"}, {"measurement": "TOP2A expression Fold Change (FC)", "setting": "MIA PaCa-2 cells [2]", "value": "-9,61"}, {"measurement": "reduction of detachment and migration compared to LIF", "setting": "MIA PaCa-2 cells [3]", "value": "≈ 40%"}]}]}
